From PubChem BioAssay (NCI) come the findings set out here.

Where “and” joins values, the source holds several entries; their conditions need not be identical. Equal entries are not always repeated.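 Assay format: 96-well plates, 48-hour exposure. GI50 is the concentration that inhibits growth by half. TGI: concentration producing complete growth inhibition.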

Some test systems named below: 786-0 renal; CCRF-CEM leukemia; DU-145 prostate; HCT-116 colon; HCT-15 colon; HL-60(TB) leukemia; HT29 colon; MALME-3M melanoma; MOLT-4 leukemia; NCI-H522 lung; NCI/ADR-RES ovarian; OVCAR-3 ovarian; SNB-75 CNS; T-47D breast; UO-31 renal.
Common to all, as to experiment: inhibition of tumour cell growth, NCI panel, 48 h

Regarding `COc1ccc2[nH]cc([C@@H]3C4CCC(C4)[C@H]3NCc3cccc(CN[C@H]4C5CCC(C5)[C@@H]4c4c[nH]c5ccc(OC)cc45)c3)c2c1`, the TGI with 786-0 renal was 1.9 µM and 2 µM; in the experiment with CCRF-CEM leukemia, 1.08 µM; in the experiment with DU-145 prostate, 3.31 µM and 3.08 µM; with HCT-116 colon, 1.08 µM and 2.02 µM; with HCT-15 colon, 1.95 µM and 2.39 µM; in the experiment on HL-60(TB) leukemia, 0.453 µM and 0.503 µM. Moreover, the TGI was 1.81 µM and 0.63 µM in the experiment with HT29 colon; 3.32 µM and 3.31 µM in the experiment on MALME-3M melanoma; 3.76 µM and 1.29 µM in the experiment with MOLT-4 leukemia; 2.48 µM and 2.83 µM with NCI-H522 lung; 3.04 µM and 2.98 µM in the experiment with NCI/ADR-RES ovarian; 2.89 µM and 3.02 µM with OVCAR-3 ovarian. Besides, the TGI in the experiment with SNB-75 CNS was 2.59 µM and 2.03 µM; in the experiment with T-47D breast, 2.95 µM; in the experiment on UO-31 renal, 2.85 µM and 2.64 µM. Further, the GI50 was 0.351 µM in the experiment with HCT-116 colon, 1.56 µM with MOLT-4 leukemia, 0.785 µM in the experiment with SNB-75 CNS and 1.33 µM in the experiment with T-47D breast.

Take `CO/N=C(\C(=O)N(C)n1cnnc1)c1csc(NC(c2ccccc2)(c2ccccc2)c2ccccc2)n1`: the TGI in the experiment with 786-0 renal, with CCRF-CEM leukemia, in the experiment with DU-145 prostate, with HCT-116 colon, with HCT-15 colon and in the experiment with HL-60(TB) leukemia was greater than 10 µM throughout. Besides, the TGI with HT29 colon, in the experiment on MALME-3M melanoma, in the experiment on MOLT-4 leukemia, in the experiment with NCI-H522 lung, with NCI/ADR-RES ovarian and in the experiment on OVCAR-3 ovarian was greater than 10 µM each time. The TGI with SNB-75 CNS, with T-47D breast and in the experiment on UO-31 renal was greater than 10 µM throughout.

Take `Cc1nc(N/N=C/c2ccccc2Cl)[nH]c(=O)c1CCO`: the TGI in the experiment on 786-0 renal, in the experiment on CCRF-CEM leukemia, in the experiment with DU-145 prostate, in the experiment with HCT-116 colon, in the experiment on HCT-15 colon and in the experiment on HL-60(TB) leukemia was greater than 100 µM throughout. Moreover, the TGI is greater than 100 µM in the experiment with HT29 colon; 91.4 µM in the experiment with MALME-3M melanoma; greater than 100 µM in the experiment with MOLT-4 leukemia; 34.4 µM in the experiment with NCI-H522 lung; greater than 100 µM in the experiment on NCI/ADR-RES ovarian; 46.5 µM with OVCAR-3 ovarian. In addition, the figures for the TGI in the experiment on SNB-75 CNS, in the experiment with T-47D breast and with UO-31 renal were 41.4 µM, greater than 100 µM and greater than 100 µM, respectively.

Turning to `CC(C)NC(=O)OCc1c(COC(=O)NC(C)C)c(-c2cc[n+](COC(=O)C(C)(C)C)cc2)n2c1CCC2`, the TGI in the experiment with 786-0 renal, in the experiment with CCRF-CEM leukemia, in the experiment with DU-145 prostate, with HCT-116 colon, with HCT-15 colon and with HL-60(TB) leukemia was greater than 100 µM throughout. Besides, the TGI with HT29 colon, with MALME-3M melanoma, in the experiment with MOLT-4 leukemia, in the experiment with NCI-H522 lung, in the experiment with NCI/ADR-RES ovarian and in the experiment with OVCAR-3 ovarian was greater than 100 µM throughout. Moreover, the TGI in the experiment with SNB-75 CNS, in the experiment on T-47D breast and in the experiment on UO-31 renal was greater than 100 µM in each case.

Turning to `CC(=O)Nc1ccc(-c2nc3ccccc3s2)cc1I`, the TGI in the experiment on 786-0 renal is 44.5 µM; with CCRF-CEM leukemia, greater than 100 µM; with DU-145 prostate, greater than 51 µM; in the experiment on HCT-116 colon, 81 µM; in the experiment with HCT-15 colon it was greater than 100 µM; with HL-60(TB) leukemia, greater than 100 µM. Also, the TGI in the experiment on HT29 colon was greater than 100 µM; with MALME-3M melanoma, greater than 94.2 µM; in the experiment on MOLT-4 leukemia, greater than 100 µM; in the experiment on NCI-H522 lung, greater than 100 µM; with NCI/ADR-RES ovarian, greater than 96.3 µM; in the experiment on OVCAR-3 ovarian it was 32.4 µM. The values for the TGI in the experiment with SNB-75 CNS, with T-47D breast and in the experiment on UO-31 renal were 67.4 µM, greater than 93.2 µM and 67.9 µM, respectively.

With `CNC(=O)N(CCC#N)CCCN(C(=O)NC)c1ccccc1`, the TGI in the experiment with 786-0 renal, in the experiment on CCRF-CEM leukemia, in the experiment with DU-145 prostate, with HCT-116 colon, in the experiment with HCT-15 colon and in the experiment with HL-60(TB) leukemia was greater than 100 µM throughout. Besides, the TGI in the experiment on HT29 colon, with MALME-3M melanoma, with MOLT-4 leukemia, with NCI-H522 lung, in the experiment with NCI/ADR-RES ovarian and with OVCAR-3 ovarian was greater than 100 µM each time. In addition, the TGI in the experiment on SNB-75 CNS, in the experiment with T-47D breast and in the experiment with UO-31 renal was greater than 100 µM in each case.

Consider `C[C@]12CC/C(=N\O)C=C1CC[C@@H]1[C@@H]2CC[C@]2(C)C(=N/O)/C(=C/c3ccc([N+](=O)[O-])cc3)C[C@@H]12`, for which the TGI in the experiment with 786-0 renal was 27.7 µM; in the experiment on CCRF-CEM leukemia it was 16 µM; in the experiment with DU-145 prostate, 28.8 µM; in the experiment with HCT-116 colon, 14.2 µM; in the experiment with HCT-15 colon, greater than 100 µM; in the experiment on HL-60(TB) leukemia, 8.91 µM. Also, the TGI in the experiment on HT29 colon is 21.9 µM; in the experiment on MALME-3M melanoma, 71 µM; with MOLT-4 leukemia it was 9.55 µM; with NCI-H522 lung, 9.64 µM; in the experiment on NCI/ADR-RES ovarian, greater than 100 µM; in the experiment on OVCAR-3 ovarian, 8.1 µM. The values for the TGI with SNB-75 CNS, in the experiment with T-47D breast and in the experiment with UO-31 renal were 26.9 µM, 3.69 µM and 20.4 µM, respectively.

For `COc1ccc(OCc2ccc3nc(-c4ccccc4)c(Cl)nc3c2)cc1`, the TGI was 32.6 µM with 786-0 renal; 45.4 µM with CCRF-CEM leukemia; greater than 100 µM with DU-145 prostate; greater than 100 µM in the experiment with HCT-116 colon; greater than 100 µM in the experiment with HCT-15 colon; 45.9 µM in the experiment with HL-60(TB) leukemia. Further, the TGI with HT29 colon was greater than 100 µM; in the experiment with MALME-3M melanoma, 37.3 µM; in the experiment with MOLT-4 leukemia, greater than 100 µM; in the experiment on NCI-H522 lung it was 40.5 µM; in the experiment with NCI/ADR-RES ovarian, greater than 100 µM; in the experiment on OVCAR-3 ovarian it was greater than 100 µM. Besides, the TGI in the experiment on SNB-75 CNS, with T-47D breast and in the experiment with UO-31 renal was greater than 100 µM throughout.

In the case of `CC1Oc2c(c(=O)oc3ccccc23)[C@@]1(C)CC1C[C@H](C)C(=O)O1` (some centres undefined), the TGI is 33.4 µM in the experiment on 786-0 renal; 32.9 µM with CCRF-CEM leukemia; greater than 100 µM in the experiment on DU-145 prostate; 28.4 µM in the experiment with HCT-116 colon; greater than 100 µM in the experiment on HCT-15 colon; greater than 100 µM with HL-60(TB) leukemia. Besides, the TGI is 71.5 µM in the experiment with HT29 colon; 53.4 µM with MALME-3M melanoma; 37.2 µM with MOLT-4 leukemia; 34.2 µM in the experiment on NCI-H522 lung; greater than 100 µM with NCI/ADR-RES ovarian; 45.3 µM with OVCAR-3 ovarian. Besides, the TGI in the experiment on SNB-75 CNS is greater than 100 µM; in the experiment on T-47D breast, greater than 100 µM; in the experiment with UO-31 renal it was 90.2 µM.
